Test results reported in US9120094B2, “Polymerization of bis[3-(diethoxyphosphoryl)propyl]diallylammonium chloride” (King Fahd University of Petroleum and Minerals, priority 2013, dated 2015).

What was measured:
[1] = Solubility behavior of polymers in solvents; format: physicochemical; conditions: water (salt-free)
Description: After stirring a mixture of PZ 5 or PZA 7 (2 w/w %) in a solvent at 70° C. […] Table II is presented below.

[2] = Potentiometric titration for protonation (basicity) constants; format: physicochemical; conditions: monomer, 0.0175M NaCl at 23° C.
Source text: Procedure for the determination of the protonation constants (K1, K2 and K3) of the polyzwitterion/trianion (PZTAN) 10 (Z^±≡) and K1, K2 and K4 of its corresponding monomer ZTAN 15 (Z^±≡) by potentiometric titrations, carried out in an atmosphere of N2 in CO2-free water, is described elsewhere (Al-Muallem, H. A.; Wazeer M. I. M.; Ali, S. A. Polymer, 2002, 43, 4285—incorporated herein by reference in its entirety). A certain mmol of PZA 7 (ZH3^±) or 11 (ZH4^+) in 200 cm^3 of 0.0175 M NaCl was used in each trial (Tables 3 and 4). As the polymer was insoluble in salt-free water, it (≈100 mg) was first dissolved in 1 M NaCl (3.5 mL) and then diluted to 200 mL to make the polymer solution in 0.0175 M NaCl. For the sake of comparison the NaCl strength of water-soluble monomer 11 was also kept at 0.0175 M.
The Log K1, Log K2 and Log K3 of the respective protonation of ^2−O3P—X^+—PO3^2− [in (±≡) PZTAN 10], ^2O3P—X^+—PO3H^− [in (±=) (PZDAN) 9] and ^−HO3P—X^+—PO3H^− [(in (±−) plyzwitterion/anion (PZAN) 8] were calculated at each pH value by the Henderson-Hasselbalch eq 2 (Scheme 2) where the degree of protonation (α) is the ratios [ZH^±=]eq/[Z]o, [ZH2^±−]eq/[Z]o and [ZH3^±]eq/[Z]o, respectively. The [ZH^±=]eq, [ZH2^±−]eq and [ZH3^±]eq represent the respective equilibrium concentrations of the first (9), second (8) and third protonated species (7) whereas [Z]o describes the initial concentration of repeating units.
For the determination of the third step [8 (ZH2^±−)+H^+⇄7 (ZH3^±)] protonation constant (log K3) using the titration of PZA 7 [ZH3^±] with NaOH, α represents the ratio [ZH3^±]eq/[Z]o whereby [Z]o and [ZH3^±]eq are related by [ZH3^±]eq=[Z]o—COH^−—[H^+]+[OH^−], where COH^− represent the added NaOH concentration. The equilibrium [H^+] and [OH^−] values were calculated from the pH value. Continuing the titration, the second step [9 (ZH^±=)+H^+⇄8 (ZH2^±−)] protonation constant (log K2) was determined using volume of the titrant after deducting the equivalent volume from the total volume. […]

SMILES | Solubility in words [1] | Log Ki^o (log K4) ([2]; fourth step 12 (ZH3±) to 11 (ZH4+), approximate, 2[Z]o used) | Log Ki^o (log K2) ([2]; second step protonation) | Log Ki^o (log K1) ([2]; titration of 11 (ZH4+) with NaOH, first step protonation of 15)
C=CC[N+](CC=C)(CCCP(=O)(O)O)CCCP(=O)(O)O.[Cl-] [compound 11] | water-soluble | – | – | –
C=CC[N+](CC=C)(CCCP(=O)([O-])[O-])CCCP(=O)([O-])[O-].[Na+].[Na+].[Na+] [compound 15] | – | 2.30 | 7.43 | 9.78
